Columns and labels:
Assay type in all cases: cell-based
EGFR (L858R/T790M/C797S) [1] = target: T1, EGFR (L858R/T790M/C797S) (Homo sapiens, UniProt P00533, C797S/L858R/T790M); assay: Cell degradation HTRF assay, H1975-clone #25 cells; details: H1975-clone #25 (L858R/T790M/C797S) cells, 16 h treatment
Protocol: Cell Degradation of Example 124-189
H1975-#28 and H1975-#25 cells are treated with compounds diluted in 0.2% DMSO cell culture medium on day 2, incubate for 16 h, 37° C., 5% CO2. the final concentration of compounds in all assay is start with 10 uM, 5-fold dilution, total 8 doses were included.
(§1) After 16 h treatment, add HTRF lysis buffer to each well; seal the plate and incubate 1 hour at room temperature on a plate shaker; Once the cells are lysed, 16 μL of cell lysate are transferred to a PE 384-well HTRF detection plate; 4 μL of pre-mixed HTRF antibodies are added to each well; Cover the plate with a plate sealer, spin 1000 rpm for 1 min, Incubate overnight at room temperature; Read on BMG PheraStar with HTRF protocol (337 nm-665 nm-620 nm).
The inhibition (degradation) percentage of the compound was calculated by the following equation:
(§2) Inhibition percentage of Compound=100−100×(Signal−low control)/(High control−low control), wherein signal=each test compound group.
(§3) High control=Cell group with added DMSO and without compound, indicating microplate readings without EGFR degradation;
(§4) Dmax is the maximum percentage of inhibition (degradation).
(§5) The IC50 (DC50) value of a compound can be obtained by fitting the following equation
Y=Bottom+(TOP−Bottom)/(1+((IC50/X)^hillslope))
(§6) Wherein, X and Y are known values, and IC50, Hillslope, Top and Bottom are the parameters obtained by fitting with software. Y is the inhibition percentage (calculated from the equation), X is the concentration of the compound; IC50 is the concentration of the compound when the 50% inhibition is reached. The smaller the IC50 value is, the stronger the inhibitory ability of the compound is. Vice versa, the higher the IC50 value is, the weaker the ability the inhibitory ability of the compound is; Hillslope represents the slope of the fitted curve, generally around 1*; Bottom represents the minimum value of the curve obtained by data fitting, which is generally 0%±20%; Top represents the maximum value of the curve obtained by data fitting, which is generally 100%±20%. The experimental data were fitted by calculating and analyzing with Dotmatics data analysis software. When Dmax<50%, DC50 will be automatically assigned as larger than […].

EGFR (Del19/T790M/C797S) [2] = assay: Cell degradation HTRF assay, H1975-clone #28 cells; details: H1975-clone #28 (Del19/T790M/C797S) cells, 16 h treatment
Procedure, shortened: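 H1975 clones #25 and #28 were treated 16 h at 37° C, 5% CO2 with 8 doses (top 10 uM, 5-fold dilution) in 0.2% DMSO medium. EGFR in lysates read by HTRF (665/620 nm); degradation % relative to DMSO high control; DC50 from 4-parameter fit, Dmax = maximal degradation.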

EGFR (Del19/T790M/C797S) [3] = assay: Cell degradation HTRF assay, BaF3-DTC cells; details: 16 h treatment; for DC50: HTRF; for DTC Dmax (%): maximum percentage of degradation
Protocol: (§7) Cell Degradation of Example 1-28
(§8) BaF3-LTC (L858R/T790M/C797S) and BaF3-DTC (Del19/T790M/C797S) cells are treated with compounds diluted in 0.2% DMSO cell culture medium and incubate for 16 h, 37° C., 5% CO2. The final concentration of compounds in all assay is start with 10 uM, 4-fold dilution, total 8 doses were included.
as §1, with “nm). The inhibition (degradation) percentage of the compound was calculated by the following equation:” for “nm).”
as §2, §3, §4, §5
(§9) Y=Bottom+(TOP−Bottom)/(1+((C50/X)^hillslope))
as §6, with “000±20%;” for “0%±20%;”

EGFR (L858R/T790M/C797S) [4] = target: T1, EGFR (L858R/T790M/C797S); assay: Cell degradation HTRF assay, BaF3-LTC cells; design: expressed in transfected cells; host or cells: BaF3-LTC; details: 16 h treatment; for DC50: HTRF; for Dmax: maximum percentage of degradation
Protocol: as §7, §8
as §1, with “nm). The inhibition (degradation) percentage of the compound was calculated by the following equation:” for “nm).”
as §2, §3, §4, §5, §9
as §6, with “000±20%;” for “0%±20%;”

T1 sequence (P00533 25-1210 T790M/C797S/L858R): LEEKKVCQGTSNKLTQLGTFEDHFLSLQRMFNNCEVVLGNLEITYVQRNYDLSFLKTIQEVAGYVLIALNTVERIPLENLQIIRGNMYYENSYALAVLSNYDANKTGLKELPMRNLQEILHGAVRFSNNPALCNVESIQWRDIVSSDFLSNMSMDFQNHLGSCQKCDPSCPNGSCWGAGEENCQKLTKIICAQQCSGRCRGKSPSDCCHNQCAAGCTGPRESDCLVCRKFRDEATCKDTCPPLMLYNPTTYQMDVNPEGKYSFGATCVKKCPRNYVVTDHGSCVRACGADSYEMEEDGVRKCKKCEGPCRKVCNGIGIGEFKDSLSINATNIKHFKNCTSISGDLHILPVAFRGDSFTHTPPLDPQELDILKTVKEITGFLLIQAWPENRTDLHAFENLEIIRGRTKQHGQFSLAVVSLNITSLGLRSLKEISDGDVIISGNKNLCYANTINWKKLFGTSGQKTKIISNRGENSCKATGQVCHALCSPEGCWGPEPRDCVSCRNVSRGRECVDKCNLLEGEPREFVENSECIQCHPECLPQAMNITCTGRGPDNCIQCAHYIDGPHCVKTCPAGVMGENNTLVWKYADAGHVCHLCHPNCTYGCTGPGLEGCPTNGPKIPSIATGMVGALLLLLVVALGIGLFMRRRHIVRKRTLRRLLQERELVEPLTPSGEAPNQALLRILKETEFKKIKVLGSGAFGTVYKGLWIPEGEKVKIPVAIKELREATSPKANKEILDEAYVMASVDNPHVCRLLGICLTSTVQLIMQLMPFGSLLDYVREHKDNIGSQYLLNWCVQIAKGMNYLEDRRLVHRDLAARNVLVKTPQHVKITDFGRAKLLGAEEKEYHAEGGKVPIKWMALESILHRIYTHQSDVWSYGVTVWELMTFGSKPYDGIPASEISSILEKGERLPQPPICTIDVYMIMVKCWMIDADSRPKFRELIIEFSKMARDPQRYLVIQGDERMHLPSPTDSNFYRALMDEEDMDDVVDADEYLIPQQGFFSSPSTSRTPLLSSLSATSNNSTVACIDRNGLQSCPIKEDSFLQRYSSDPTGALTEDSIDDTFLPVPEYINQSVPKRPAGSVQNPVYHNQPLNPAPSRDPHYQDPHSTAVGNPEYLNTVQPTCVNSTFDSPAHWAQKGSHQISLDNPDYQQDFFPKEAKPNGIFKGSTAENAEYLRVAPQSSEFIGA

SMILES | DC50 (EGFR (L858R/T790M/C797S) [1]; HTRF, read-out: H1975-clone#25 LTC DC50) | Dmax (EGFR (L858R/T790M/C797S) [1]; maximum percentage of degradation, read-out: H1975-clone#25 LTC Dmax (%)) | DC50 (EGFR (Del19/T790M/C797S) [2]; HTRF, read-out: H1975-clone#28 DTC DC50) | H1975-clone#28 DTC Dmax (%) (EGFR (Del19/T790M/C797S) [2]; maximum percentage of degradation) | DC50 (EGFR (Del19/T790M/C797S) [3]) | DTC Dmax (%) (EGFR (Del19/T790M/C797S) [3]) | DC50 (EGFR (L858R/T790M/C797S) [4]) | Dmax (EGFR (L858R/T790M/C797S) [4])
CCc1cc(Nc2ncc(Br)c(Nc3cnc4ccc(C(F)(F)F)cc4c3P(C)(C)=O)n2)c(OC)cc1N1CCC(N2CCN(CCc3cccc4c3n(C)c(=O)n4C3CCC(=O)NC3=O)CC2)CC1 (stereo not shown) [Example 166, 3-(4-(2-(4-(1-(4-((5-bromo-4-((4-(dimethylphosphoryl)-6-(trifluoromethyl)quinolin-3-yl)amino)pyrimidin-2-yl)amino)-2-ethyl-5-methoxyphenyl)piperidin-4-yl)piperazin-1-yl)ethyl)-3-methyl-2-oxo-2,3-dihydro-1H-benzo[d]imidazol-1-yl)piperidine-2,6-dione] | 4.2 nM | 81% | 2.8 nM | 80% | – | – | – | –
CCc1cc(Nc2ncc(Br)c(Nc3cnc4cccnc4c3P(C)(C)=O)n2)c(OC)cc1N1CCC(N2CCN(CCC3CCN(c4cc(F)c(C5CCC(=O)NC5=O)c(F)c4)CC3)CC2)CC1 (stereo not shown) [Example 9, 3-(4-(4-(2-(4-(1-(4-((5-bromo-4-((4-(dimethylphosphoryl)-1,5-naphthyridin-3-yl)amino)pyrimidin-2-yl)amino)-2-ethyl-5-methoxyphenyl)piperidin-4-yl)piperazin-1-yl)ethyl)piperidin-1-yl)-2,6-difluorophenyl)piperidine-2,6-dione] | – | – | – | – | 12.7 nM | 96.14% | 29.3 nM | 88%
CCc1cc(Nc2ncc(Br)c(Nc3cnc4ccccc4c3P(C)(C)=O)n2)c(OC)cc1N1CCC(N2CCN(CCc3cccc4c3n(C)c(=O)n4C3CCC(=O)NC3=O)CC2)CC1 (stereo not shown) [Example 21, 3-(4-(2-(4-(1-(4-((5-bromo-4-((4-(dimethylphosphoryl)quinolin-3-yl)amino)pyrimidin-2-yl)amino)-2-ethyl-5-methoxyphenyl)piperidin-4-yl)piperazin-1-yl)ethyl)-3-methyl-2-oxo-2,3-dihydro-1H-benzo[d]imidazol-1-yl)piperidine-2,6-dione] | – | – | – | – | 1.11 nM | 94.17% | 5.02 nM | 93.3%
CCc1cc(Nc2ncc(Br)c(Nc3cnc4ccccc4c3P(C)(C)=O)n2)c(OC)cc1N1CCC(N2CCN(CCc3cccc4nn(C5CCC(=O)NC5=O)cc34)CC2)CC1 (stereo not shown) [Example 14, 3-(4-(2-(4-(1-(4-((5-bromo-4-((4-(dimethylphosphoryl)quinolin-3-yl)amino)pyrimidin-2-yl)amino)-2-ethyl-5-methoxyphenyl)piperidin-4-yl)piperazin-1-yl)ethyl)-2H-indazol-2-yl)piperidine-2,6-dione] | – | – | – | – | 186 nM | 81.73% | 546 nM | 84.6%
CCc1cc(Nc2ncc(Br)c(Nc3cnc4ccccc4c3P(C)(C)=O)n2)c(OC)cc1N1CCC(N2CCN(C(=O)[C@H]3C[C@H](N(C)c4cc(F)c(C5CCC(=O)NC5=O)c(F)c4)C3)CC2)CC1 (stereo partly shown) [Example 18, 3-(4-(((1r,3r)-3-(4-(1-(4-((5-bromo-4-((4-(dimethylphosphoryl)quinolin-3-yl)amino)pyrimidin-2-yl)amino)-2-ethyl-5-methoxyphenyl)piperidin-4-yl)piperazine-1-carbonyl)cyclobutyl)(methyl)amino)-2,6-difluorophenyl)piperidine-2,6-dione] | – | – | – | – | 3.95 nM | 97.59% | 14.6 nM | 90.7%
CCc1cc(Nc2ncc(Br)c(Nc3cnc4ccccc4c3P(C)(C)=O)n2)c(OC)cc1N1CCC(N2CCN(C(=O)C3CN(c4cc(F)c(C5CCC(=O)NC5=O)c(F)c4)C3)CC2)CC1 (stereo not shown) [Example 20, 3-(4-(3-(4-(1-(4-((5-bromo-4-((4-(dimethylphosphoryl)quinolin-3-yl)amino)pyrimidin-2-yl)amino)-2-ethyl-5-methoxyphenyl)piperidin-4-yl)piperazine-1-carbonyl)azetidin-1-yl)-2,6-difluorophenyl)piperidine-2,6-dione] | – | – | – | – | 4.65 nM | 96.7% | 19.5 nM | 89.5%
CCc1cc(Nc2ncc(Br)c(Nc3cnc4ccccc4c3P(C)(C)=O)n2)c(OC)cc1N1CCC(N2CCN(C(=O)C3CCN(c4ccc5c(c4)n(C)c(=O)n5C4CCC(=O)NC4=O)CC3)CC2)CC1 (stereo not shown) [Example 15, 3-(5-(4-(4-(1-(4-((5-bromo-4-((4-(dimethylphosphoryl)quinolin-3-yl)amino)pyrimidin-2-yl)amino)-2-ethyl-5-methoxyphenyl)piperidin-4-yl)piperazine-1-carbonyl)piperidin-1-yl)-3-methyl-2-oxo-2,3-dihydro-1H-benzo[d]imidazol-1-yl)piperidine-2,6-dione] | – | – | – | – | 1.23 nM | 94.57% | 3.23 nM | 86.4%
CCc1cc(Nc2ncc(Br)c(Nc3cnc4cnccc4c3P(C)(C)=O)n2)c(OC)cc1N1CCC(N2CCN(CCc3cc(F)c(C4CCC(=O)NC4=O)c(F)c3)CC2)CC1 (stereo not shown) [Example 28, 3-(4-(2-(4-(1-(4-((5-bromo-4-((4-(dimethylphosphoryl)-1,7-naphthyridin-3-yl)amino)pyrimidin-2-yl)amino)-2-ethyl-5-methoxyphenyl)piperidin-4-yl)piperazin-1-yl)ethyl)-2,6-difluorophenyl)piperidine-2,6-dione] | – | – | – | – | 5.4 nM | 90.9% | 8.95 nM | 81.9%
CCc1cc(Nc2ncc(Br)c(Nc3cnc4c(C)cccc4c3P(C)(C)=O)n2)c(OC)cc1N1CCC(N2CCN(CCc3cc(F)c(C4CCC(=O)NC4=O)c(F)c3)CC2)CC1 (stereo not shown) [Example 10, 3-(4-(2-(4-(1-(4-((5-bromo-4-((4-(dimethylphosphoryl)-8-methylquinolin-3-yl)amino)pyrimidin-2-yl)amino)-2-ethyl-5-methoxyphenyl)piperidin-4-yl)piperazin-1-yl)ethyl)-2,6-difluorophenyl)piperidine-2,6-dione] | – | – | – | – | 24.8 nM | 88.58% | 219 nM | 88.4%
CCc1cc(Nc2ncc(Br)c(Nc3cnc4ccccc4c3P(C)(C)=O)n2)c(OC)cc1N1CCC(N2CCN(C(=O)C3CCN(c4ccc5c(c4)C(C)(C)C(=O)N5C4CCC(=O)NC4=O)CC3)CC2)CC1 (stereo not shown) [Example 17, 3-(5-(4-(4-(1-(4-((5-bromo-4-((4-(dimethylphosphoryl)quinolin-3-yl)amino)pyrimidin-2-yl)amino)-2-ethyl-5-methoxyphenyl)piperidin-4-yl)piperazine-1-carbonyl)piperidin-1-yl)-3,3-dimethyl-2-oxoindolin-1-yl)piperidine-2,6-dione] | – | – | – | – | 1.94 nM | 96.58% | 3.86 nM | 92.5%
